Article PMC11156899, “High-throughput screening unveils nitazoxanide as a potent PRRSV inhibitor by targeting NMRAL1” (Nature Communications, 2024)

Columns and labels:
PRRSV (GSWW-18 strain) = assay: Anti-PRRSV dose-response (EC50, IFA) in PAM cells; format: cell-based, Porcine Reproductive and Respiratory Syndrome Virus; settings: PAM cells
PRRSV GSWW-15 = assay: EC50 against GSWW-15 strain on PAM cells; format: cell-based; settings: Porcine reproductive and respiratory syndrome virus
Description: Supplementary Fig. 3: Cytotoxicity and Antiviral Efficacy of NTZ.
PRRSV capsid protein positive
(primary antibody SR30, green) and nuclei (DAPI, blue).

NSP12 = assay: In vitro binding (DSF/CETSA) of NSP12 purified by inclusion bodies; design: species or system PRRSV GSWW-18 strain; settings: NSP12 purified by IBs, different buffer systems
Protocol: For DSF, 20 μM purified NSP1α and NSP12 protein from the GSWW-18 strain, as well as NMRAL1 protein (Accession: A0A0D9R9W0) was thoroughly mixed with 20 μM SYPRO Orange (S6650, Thermo) in a buffer containing 10 mM HEPES and 200 mM NaCl at pH 7.20. An equal volume of 100 μM NTZ, dissolved in the same buffer, was added and the mixture was filtered through a 0.22 μm filter. For controls, an equivalent volume of DMSO was used. […] DSF experiments were monitored using the QuantStudio™ 5 Real-Time PCR System (Thermo). Data were analyzed using DSFworld[42].
'FT' is the flow-through after passing through the Ni column. 'Ni-200' and 'Ni-500' represent different purification conditions with varying concentrations. 'L2' is the total cell lysate after changing the expression conditions. 'S2' is the supernatant after cell lysis with changed expression conditions. The portions highlighted in red boxes indicate the target protein. […]
constant (KD) between Nsp1α and TIZ is lower than that of NMRAL1. We observe that […]
attempting different systems (Fig. R5 e-h). Although SPR confirms the interaction […]
possibly be attributed to the abnormal protein conformation of NSP12 purified by IBs. […]
(b) The KD value of Nsp1α determined using the Kinetics fit model. […]
(I) The KD value of Nsp12 determined using the Kinetics fit model. […]

PRRSV VR-2332 = assay: Time-of-addition and lifecycle-stage experiments in Marc-145 cells; format: cell-based, Porcine Reproductive and Respiratory Syndrome Virus
Description: The pronounced antiviral phenotype led us to explore the mechanism behind NTZ’s inhibition of PRRSV proliferation. We adopted a classic approach of administering the drug at various time points to study NTZ’s effect on the PRRSV lifecycle (Supplementary Fig. 9a). […] Identifying the target protein of NTZ became imperative. Using the isothermal shift assay (iTSA), we discovered 26 potential NTZ targets (Fig. 5a). Further, Cellular Thermal Shift Assay-Western Blot (CETSA-WB) temperature range (TR) experiment indicated Glycine amidinotransferase mitochondrial (GATM), NMRAL1, and PRRSV proteins NSP1α and NSP12 as potential NTZ targets (Fig. 5b, c). The compound concentration range (CCR) experiment also supported these four proteins as potential NTZ targets (Fig. 5d).
Supplementary Fig. 9: NTZ Inhibition of PRRSV Replication Stages.
(a) Schematic of the classic experimental approach of adding the drug at different time points. […]
(c) Viral inactivation (dark purple): PRRSV was pre-incubated with the compound for 1 hour in the incubator before transferring to monolayer Marc-145 cells, followed by medium change after 2 hours. […] All samples were collected and analyzed at 48 […]
hours. […] NS indicates P > 0.0332, calculated via two-way ANOVA with Dunnett’s multiple-comparison test (b and c); P-values < 0.0332 were considered significant.

Structure (SMILES): CC(=O)Oc1ccccc1C(=O)Nc1ncc([N+](=O)[O-])s1 [Nitazoxanide]
- IFA inhibitory effect on PRRSV (PRRSV (GSWW-18 strain); GSWW-18): dose-dependent inhibitory effect
- EC50 (PRRSV (GSWW-18 strain); Porcine reproductive and respiratory syndrome virus, mean ± SEM, n = 2, unit only on axis title, read-out: EC50): 310 ± 147 nM
- EC50 (PRRSV GSWW-15): ~1170 nM
- binding activity with NSP12 in vitro (NSP12): did not exhibit binding activity
- PRRSV proliferation, late addition (PRRSV VR-2332; added 16 h post viral inoculation): significantly inhibited PRRSV proliferation
- stage of PRRSV lifecycle affected (PRRSV VR-2332; adsorption, entry, replication, release): primarily affects PRRSV replication
